Consider nine compounds from patent US12110295B2, “WD40 repeat domain protein 5 (WDR5) degradation/disruption compounds and methods of use” (Icahn School of Medicine at Mount Sinai, priority 2018, dated 2024).

Each structure is given as a SMILES string.

For this assay, the target named is WDR5 (Homo sapiens, UniProt P61964). Put plainly: Screening of putative WDR5 degraders by Western blot in MV4;11 and/or MIAPACA2 cells. The arrangement: After WDR5 degrader treatment, cells were collected and lysed; endogenous in cells; host or cells: MV4;11 and/or MIAPACA2. It counts as cell-based. The following applies: summary of screening, FIGS. 6-10. On the procedure:
MV4;11 cells were treated with DMSO or indicated compounds at 0.1 μM and 0.5 μM for 18 hours. […]. MIAPACA2 cells were treated with DMSO or indicated compounds at 0.5 μM and 1.0 μM for 18 hours.
MIAPACA2 cells were treated with DMSO or indicated compounds at 0.1 μM and 0.5 μM for 18 hours.
MIAPACA2 cells were treated with DMSO or indicated compounds at 0.5 μM and 1.0 μM or at 1.0 μM and 10 μM for 18 hours.
MV4;11 cells were treated with DMSO or indicated compounds at 0.1 μM and 1.0 μM for 18 hours.
WDR5 degraders were dissolved in DMSO and DMSO with no degraders was used as the control. 1×10^6 MV4;11 cells or 1×10^5 MIAPACA2 or 2×10^5 Hela cells were seeded in 2 mL medium for each well in […].
For prescreening of all the compounds, each test compound was added to the medium at indicated concentrations. After 18 h treatment, cells were collected.
After WDR5 degrader treatment, cells were collected and lysed. Total cell lysates were used for western blot. The following primary antibodies were used: WDR5 (Santa Cruz), vinculin (Cell Signaling Technology), tubulin (Cell Signaling Technology), GAPDH (Santa Cruz). Blots were imaged using fluorescence-labeled secondary antibodies on ChemiDoc™ Imaging Systems.
On the technique in general: In western blotting, separated proteins are transferred to a membrane and probed.
Regarding `Cc1ncsc1-c1ccc(CNC(=O)[C@@H]2C[C@@H](O)CN2C(=O)[C@@H](NC(=O)CCCCCCCCCC(=O)N2CC=C(c3cc(NC(=O)c4c[nH]c(=O)cc4C(F)(F)F)c(N4C[C@@H](C)N(C)[C@@H](C)C4)cc3F)CC2)C(C)(C)C)cc1` [XF078-46, N-(4-fluoro-5-(1-(11-(((S)-1-((2S,4R)-4-hydroxy-2-((4-(4-methylthiazol-5-yl)benzyl)carbamoyl)pyrrolidin-1-yl)-3,3-dimethyl-1-oxobutan-2-yl)amino)-11-oxoundecanoyl)-1,2,3,6-tetrahydropyridin-4-yl)-2-((3S,5R)-3,4,5-trimethylpiperazin-1-yl)phenyl)-6-oxo-4-(trifluoromethyl)-1,6-dihydropyridine-3-carboxamide], the “effective degradation of WDR5 in MV4;11 and/or MIAPACA2 cells” value (from here on “effective degradation of WDR5”) is given as “able to effectively degrade WDR5”.
Consider `C[C@@H]1CN(c2cc(F)c(C3=CCN(c4ncc(CN5CCN(C(=O)CCOCCOCCOCCOCCOCCNc6cccc7c6C(=O)N(C6CCC(=O)NC6=O)C7=O)CC5)cn4)CC3)cc2NC(=O)c2c[nH]c(=O)cc2C(F)(F)F)C[C@H](C)N1C` (stereo partly drawn) [XF078-160, N-(5-(1-(5-((4-(1-((2-(2,6-dioxopiperidin-3-yl)-1,3-dioxoisoindolin-4-yl)amino)-3,6,9,12,15-pentaoxaoctadecan-18-oyl)piperazin-1-yl)methyl)pyrimidin-2-yl)-1,2,3,6-tetrahydropyridin-4-yl)-4-fluoro-2-((3S,5R)-3,4,5-trimethylpiperazin-1-yl)phenyl)-6-oxo-4-(trifluoromethyl)-1,6-dihydropyridine-3-carboxamide], for which the “effective degradation of WDR5” value is listed as “able to effectively degrade WDR5”.
As for `Cc1ncsc1-c1ccc(CNC(=O)[C@@H]2C[C@@H](O)CN2C(=O)[C@@H](NC(=O)COCCOCCNC(=O)CCC(=O)N2CCN(c3ccc(-c4cc(NC(=O)c5c[nH]c(=O)cc5C(F)(F)F)c(N5C[C@@H](C)N(C)[C@@H](C)C5)cc4F)cn3)CC2)C(C)(C)C)cc1` [XF067-142, N-(4-fluoro-5-(6-(4-((S)-3-((2S,4R)-4-hydroxy-2-((4-(4-methylthiazol-5-yl)benzyl)carbamoyl)pyrrolidine-1-carbonyl)-2,2-dimethyl-5,14-dioxo-7,10-dioxa-4,13-diazaheptadecan-17-oyl)piperazin-1-yl)pyridin-3-yl)-2-((3S,5R)-3,4,5-trimethylpiperazin-1-yl)phenyl)-6-oxo-4-(trifluoromethyl)-1,6-dihydropyridine-3-carboxamide], the “effective degradation of WDR5” value is listed as “able to effectively degrade WDR5”.
The entry for `Cc1ncsc1-c1ccc(CNC(=O)[C@@H]2C[C@@H](O)CN2C(=O)[C@@H](NC(=O)COCCOCCOCC(=O)N2CCN(Cc3cnc(N4CC=C(c5cc(NC(=O)c6c[nH]c(=O)cc6C(F)(F)F)c(N6C[C@@H](C)N(C)[C@@H](C)C6)cc5F)CC4)nc3)CC2)C(C)(C)C)cc1` [XF078-136, N-(4-fluoro-5-(1-(5-((4-((S)-13-((2S,4R)-4-hydroxy-2-((4-(4-methylthiazol-5-yl)benzyl)carbamoyl)pyrrolidine-1-carbonyl)-14,14-dimethyl-11-oxo-3,6,9-trioxa-12-azapentadecanoyl)piperazin-1-yl)methyl)pyrimidin-2-yl)-1,2,3,6-tetrahydropyridin-4-yl)-2-((3S,5R)-3,4,5-trimethylpiperazin-1-yl)phenyl)-6-oxo-4-(trifluoromethyl)-1,6-dihydropyridine-3-carboxamide] is “able to effectively degrade WDR5”; for `Cc1ncsc1-c1ccc(CNC(=O)[C@@H]2C[C@@H](O)CN2C(=O)[C@@H](NC(=O)COCC(=O)NCCN2CCN(Cc3ccc(F)c(-c4ccc(N5C[C@@H](C)N(C)[C@@H](C)C5)c(NC(=O)c5c[nH]c(=O)cc5C(F)(F)F)c4)c3)CC2)C(C)(C)C)cc1` [XF078-1, N-(2′-fluoro-5′-((4-(2-(2-(2-(((S)-1-((2S,4R)-4-hydroxy-2-((4-(4-methylthiazol-5-yl)benzyl)carbamoyl)pyrrolidin-1-yl)-3,3-dimethyl-1-oxobutan-2-yl)amino)-2-oxoethoxy)acetamido)ethyl)piperazin-1-yl)methyl)-4-((3S,5R)-3,4,5-trimethylpiperazin-1-yl)-[1,1′-biphenyl]-3-yl)-6-oxo-4-(trifluoromethyl)-1,6-dihydropyridine-3-carboxamide] it is “able to effectively degrade WDR5”; for `Cc1ncsc1-c1ccc(CNC(=O)[C@@H]2C[C@@H](O)CN2C(=O)[C@@H](NC(=O)CCCCCCC(=O)N2CCN(c3ncc(-c4cc(NC(=O)c5ccc(F)cc5C(F)(F)F)c(N5C[C@@H](C)N(C)[C@@H](C)C5)cc4F)cn3)CC2)C(C)(C)C)cc1` [XF078-112, (2S,4R)-1-((S)-2-(8-(4-(5-(2-fluoro-5-(4-fluoro-2-(trifluoromethyl)benzamido)-4-((3S,5R)-3,4,5-trimethylpiperazin-1-yl)phenyl)pyrimidin-2-yl)piperazin-1-yl)-8-oxooctanamido)-3,3-dimethylbutanoyl)-4-hydroxy-N-(4-(4-methylthiazol-5-yl)benzyl)pyrrolidine-2-carboxamide] it is “able to effectively degrade WDR5”.
As to `Cc1ncsc1-c1ccc(CNC(=O)[C@@H]2C[C@@H](O)CN2C(=O)[C@@H](NC(=O)CCCCCCCCCC(=O)N2CCN(c3ncc(-c4cc(NC(=O)c5ccc(F)cc5C(F)(F)F)c(N5C[C@@H](C)N(C)[C@@H](C)C5)cc4F)cn3)CC2)C(C)(C)C)cc1` [XF078-115, (2S,4R)-1-((S)-2-(11-(4-(5-(2-fluoro-5-(4-fluoro-2-(trifluoromethyl)benzamido)-4-((3S,5R)-3,4,5-trimethylpiperazin-1-yl)phenyl)pyrimidin-2-yl)piperazin-1-yl)-11-oxoundecanamido)-3,3-dimethylbutanoyl)-4-hydroxy-N-(4-(4-methylthiazol-5-yl)benzyl)pyrrolidine-2-carboxamide], the “effective degradation of WDR5” value was “able to effectively degrade WDR5”.
As to `C[C@@H]1CN(c2ccc(-c3cc(CN4CCN(CCNC(=O)CCOCCOCCOCCNc5cccc6c5C(=O)N(C5CCC(=O)NC5=O)C6=O)CC4)ccc3F)cc2NC(=O)c2c[nH]c(=O)cc2C(F)(F)F)C[C@H](C)N1C` (stereo partly drawn) [XF078-27, N-(5′-((4-(1-((2-(2,6-dioxopiperidin-3-yl)-1,3-dioxoisoindolin-4-yl)amino)-12-oxo-3,6,9-trioxa-13-azapentadecan-15-yl)piperazin-1-yl)methyl)-2′-fluoro-4-((3S,5R)-3,4,5-trimethylpiperazin-1-yl)-[1,1′-biphenyl]-3-yl)-6-oxo-4-(trifluoromethyl)-1,6-dihydropyridine-3-carboxamide], the “effective degradation of WDR5” value is “able to effectively degrade WDR5”.
Regarding `C[C@@H]1CN(c2ccc(-c3cc(CN4CCN(CCNC(=O)CCOCCOCCNc5cccc6c5C(=O)N(C5CCC(=O)NC5=O)C6=O)CC4)ccc3F)cc2NC(=O)c2c[nH]c(=O)cc2C(F)(F)F)C[C@H](C)N1C` (stereo partly drawn) [XF078-26, N-(5′-((4-(2-(3-(2-(2-((2-(2,6-dioxopiperidin-3-yl)-1,3-dioxoisoindolin-4-yl)amino)ethoxy)ethoxy)propanamido)ethyl)piperazin-1-yl)methyl)-2′-fluoro-4-((3S,5R)-3,4,5-trimethylpiperazin-1-yl)-[1,1′-biphenyl]-3-yl)-6-oxo-4-(trifluoromethyl)-1,6-dihydropyridine-3-carboxamide], the “effective degradation of WDR5” value is “able to effectively degrade WDR5”.
